Measurements taken from patent publication USRE47689E1, “Compounds for treating spinal muscular atrophy” (PTC Therapeutics, Inc., priority 2011, dated 2019).

Experiments:
[1] = tested on: full length and Δ7 SMN2 mRNAs; assay: Endogenous SMN2 mRNA end-point semi-quantitative RT-PCR splicing assay in animal tissues; assay type: in vivo, mouse; conditions: C/C-allele SMA mice, brain and muscle, oral gavage twice per day for 10 days, agarose gel
Experimental: The endpoint reverse transcription-PCR (RT-PCR) splicing assay is used to quantify the levels of the full length and Δ7 SMN2 mRNAs in tissues from mice treated with test compound.
Protocol. C/C-allele SMA mice are treated by oral gavage two times per day for 10 days with test compounds in 0.5% HPMC and 0.1% Tween-80. Tissue samples are collected and snap frozen for RNA purification.
Tissue samples (20-40 mg) are homogenized in QIAzol Lysis Reagent for 2 minutes at 20 Hz in the TissueLyser II using one stainless steel bead. After addition of chloroform, the homogenate is separated into aqueous and organic phases by centrifugation. RNA partitioned to the upper, aqueous phase is extracted and ethanol is added to provide appropriate binding conditions. The sample is then applied to the RNeasy spin column from the RNeasy Mini Kit, where total RNA binds to the membrane. The RNA is eluted in RNase-free water then stored at −20° C.
SMN2 spliced products are identified using the following amplification primers in Table 8. These primers hybridize to a nucleotide sequence in exon 6 (SMN Forward D, SEQ ID NO. 13) (nucleotide 22 to nucleotide 46) and exon 8 (SMN Reverse C, SEQ ID NO. 12) common to human SMN1 and SMN2 mRNAs.
To synthesize cDNA, combine 1 μL of RNA solution (25-50 ng), 4 μL of 5× iScript reaction mix, 1 μL of reverse transcriptase, and 10 μL of water are combined and incubates 25° C. for 5 min followed by 42° C. for 30 min followed by 85° C. for 5 min. cDNA solution is stored at −20° C.
To perform endpoint PCR, 5 μL of cDNA, 0.2 μL of 100 μM forward primer, 0.2 μL of 100 μM reverse primer, and 22.5 μL of polymerase super mix are combined in a 96 well semiskirted PCR plate. PCR is carried out at the following temperatures for indicated time: Step 1: 94° C. (2 min), Step 2: 94° C. (30 sec), Step 3: 55° C. (30 sec), Step 4: 68° C. (1 min), then repeat Steps 2 to 4 for a total of 33 cycles, then hold at 4° C.
10 μL of each PCR sample is electrophoretically separated on a 2% agarose E-gel for 14 minutes, stained with ds DNA staining reagents (e.g., ethidium bromide) and visualized using a gel imager.

[2] = tested on: full length and Δ7 SMN2 mRNAs; assay: Endogenous SMN2 mRNA RT-qPCR splicing assay in cultured cells; assay type: cell-based, human; conditions: GM03813 Type 1 SMA patient fibroblasts, increasing concentrations, 24 hrs
Experimental: The reverse transcription-quantitative PCR-based (RT-qPCR) assay is used to quantify the levels of the full length and Δ7 SMN2 mRNAs in primary cells and cell lines containing the SMN2 gene treated with a test compound.
Protocol. GM03813 SMA patient cells (5,000 cells/well) are seeded in 200 μL, of cell culture medium (DMEM plus 10% FBS) in 96-well flat-bottom plates and the plate is immediately swirled to ensure proper dispersal of cells, forming an even monolayer of cells. Cells are allowed to attach for at least 4-6 hrs. Test compounds are serially diluted 3.16-fold in 100% DMSO to generate a 7-point concentration curve. A solution of test compound (1 μL, 200× in DMSO) is added to each test well and 1 μL, DMSO is added to each control well. The plate is incubated for 24 hrs in a cell culture incubator (37° C., 5% CO2, 100% relative humidity). The cells are then lysed in Cells-To-Ct lysis buffer and the lysate is stored at −80° C.
SMN2-specific spliced products and GAPDH mRNA are identified using the following primers and probes in Table 5. Primer SMN FL Forward B (SEQ ID NO. 7) hybridizes to a nucleotide sequence in exon 7 (nucleotide 32 to nucleotide 54) and exon 8 (nucleotide 1 to nucleotide 4), primer SMN Δ7 Forward B (SEQ ID NO. 8) hybridizes to a nucleotide sequence in exon 6 (nucleotide 87 to nucleotide 111) and exon 8 (nucleotide 1 to nucleotide 3), primer SMN Reverse B (SEQ ID NO. 9) hybridizes to a nucleotide sequence in exon 8 (nucleotide 39 to nucleotide 62), probe SMN Probe B (SEQ ID NO. 10) hybridizes to a nucleotide sequence in exon 8 (nucleotide 7 to nucleotide 36). These primers and probe hybridize to nucleotide sequences common to human SMN1 and SMN2 mRNAs. Since the SMA patient cells used in Example 3 contain only the SMN2 gene, RT-qPCR can quantify only SMN2 full-length and Δ7 mRNA.
The SMN forward and reverse primers are used at final concentrations of 0.4 μM. The SMN probe is used at a final concentration of 0.15 μM. GAPDH primers are used at final concentrations of 0.1 μM and the probe at 0.075 μM. TaqMan gene expression assays were conducted at 20× concentrations with the GAPDH primers and Vic labeled probe provided as a 20× mixture. The One-Step RT-PCR kit was used as the Real-Time PCR Mix. […]
The increase of SMN2 FL and decrease in SMN2 Δ7 mRNAs relative to those in cells treated with vehicle control are determined from real-time PCR data using a modified ΔΔCt method (as described in Livak and Schmittgen, Methods, 2001, 25:402-8). The amplification efficiency E is calculated from the slope of the amplification curve for SMN2 FL, SMN2 Δ7, and GAPDH individually. The abundances of SMN2 FL, SMN2 Δ7, and GAPDH are then calculated as (1+E)^−Ct, where Ct is the threshold value for each amplicon. […]

| Structure (SMILES) | SMN2 FL mRNA [1] | SMN2 Δ7 mRNA [1] | SMN2 FL mRNA relative to vehicle [2] | SMN2 Δ7 mRNA relative to vehicle [2] |
| --- | --- | --- | --- | --- |
| CC(C)NCCc1ccc2cc(-c3nc4c(Cl)cccc4s3)c(=O)oc2c1 [Cpd 35, 3-(4-chloro-1,3-benzothiazol-2-yl)-7-[2-(propan-2-ylamino)ethyl]-2H-chromen-2-one] | progressively more SMN2 FL mRNA | less SMN2 Δ7 mRNA | progressively more SMN2 FL mRNA | less SMN2 Δ7 mRNA |
| CCN1CCN(c2ccc3cc(-c4cn5cc(C)nc(C)c5n4)c(=O)oc3c2)C[C@@H]1C [Cpd 626, 3-(6,8-dimethylimidazo[1,2-a]pyrazin-2-yl)-7-[(3S)-4-ethyl-3-methylpiperazin-1-yl]-2H-chromen-2-one] | progressively more SMN2 FL mRNA | less SMN2 Δ7 mRNA | progressively more SMN2 FL mRNA | less SMN2 Δ7 mRNA |
